Test results reported in patent US20260183302A1, “PDK1 REGULATORY COMPOUND AND COMPOSITION CONTAINING THE SAME” (PROVIBIO CO., LTD., priority 2024, published 2026).

How the values were obtained:
[1] = test system: NHDF (Normal Human Dermal Fibroblast) cells; assay: Anti-aging in doxorubicin/IGF-1 aged NHDF cells (SA-β-gal, Ki-67 FACS); assay type: cell-based; conditions: Doxorubicin (100 ng/ml) and IGF-1 (100 ng/ml), GO15F 0.01, 1 μM, 7 days
Description: To confirm the anti-aging and rejuvenating effects of the compound GO15F of the present invention, a NHDF (Normal Human Dermal Fibroblast, Promocell) cell model was established by inducing aging with doxorubicin (Doxorubicin), and β-galactosidase activity and Ki-67 expression were analyzed in the cells. First, NHDF cells were seeded at 1×10^4 cells per well in a 12-well plate and stabilized for 24 hours. […] After pre-incubation, the medium was removed, and the cells were cultured for 7 days in medium containing Doxorubicin (100 ng/ml) and IGF-1 (100 ng/ml) with GO15F. During this process, the medium was replaced with fresh medium every 2 days. The cultured cells were washed with PBS, fixed with 1× fixation buffer for 15 minutes, washed again with PBS, and then 300 μL of 1× working SA-β-gal buffer was added to each well. The cells were incubated at 37° C. for 24 hours. After the reaction was terminated, the cells were washed with PBS, and the […] of β-gal-positive cells stained blue was observed and photographed using a light microscope. Additionally, to investigate the effect of the compound (GO15F) of the present invention on proliferation activity in aging-induced NHDF (Normal Human Dermal Fibroblast) cells, Ki-67 expression was measured via FACS analysis. First, NHDF cells were seeded at 1×10^4 cells per well in a 12-well plate and stabilized for 24 hours. […]

[2] = test system: Human Melanoma cancer cell, Malme-3M; assay: Relative cell viability, Malme-3M (CCK-8); assay type: cell-based; conditions: 48 hours
Description: Human-derived breast cancer cell line MCF-7, human-derived lung cancer cell line A549, human-derived colorectal cancer cell line HCT-116, human pancreatic cancer cell line AsPC-1, glioblastoma cell line A172, and melanoma cell line Malme-3M were obtained from the Korean Cell Bank. gastric cancer cell line SNU-719, and bladder cancer cell line T24 were cultured in RPMI-1640 medium containing 10% FBS.
Following stabilization, the cells were harvested using Trypsin-EDTA treatment, centrifuged at 1,200 rpm for 3 minutes, the supernatant was removed, and the cells were resuspended in the same medium. They were then seeded into a 96-well plate (Costar 96-well cell culture plate, Corning) at 100 μL per well, and the conditions were adjusted as indicated in Table 5.
The cells were cultured in a 5% CO2 incubator at 37° C. for 24 hours, and after stabilization of the cells, each plate was washed with 200 μL of PBS per well and treated with 50 μL of culture medium per well.
(§1) After that, 10 μL of CCK-8 was added to each well, and the plate was incubated again at 37° C. in a 5% CO2 incubator for 2 hours.
(§2) In other words, when the survival rate of untreated cells (DMSO) is set at 100%, the relative cell survival rate in each group treated with the drug at different concentrations is indicated.

[3] = test system: Human multiple myeloma, KMS34; assay: Relative cell viability, KMS34 (CCK-8); assay type: cell-based; conditions: concentration 1 μM, relative to untreated cells
Description: as §1, §2

[4] = test system: Human B Lymphocyte cell line, SU-DHL-8; assay: Relative cell viability, SU-DHL-8 (CCK-8); assay type: cell-based; conditions: 48 hours, untreated (DMSO) = 100%
Description: Human-derived B lymphoma cell line SU-DHL-8 (Cat. #CRL-2961) purchased from ATCC was cultured in RPMI-1640 medium containing 10% FBS, 100 U/mL penicillin, and 100 μg/mL streptomycin.
The cell culture medium was then harvested, centrifuged at 1,300 rpm for 5 minutes, and the supernatant was removed. The cells were resuspended in the same medium and dispensed into a 96-well plate (Costar 96-well cell culture plate, Corning) at 90 μL per well, resulting in the conditions specified in Table 5.
Then, 10 μL of CCK-8 was added to each well, and the plates were incubated again at 37° C. in a 5% CO2 incubator for 4 hours.
as §2

PDK1 = target: T1, PDK1 (Homo sapiens, UniProt O15530); assay: IC50 for inhibiting PDK1 kinase activity; assay type: biochemical
T1 construct: purchased Promega V9681
T1 sequence (O15530 1-556): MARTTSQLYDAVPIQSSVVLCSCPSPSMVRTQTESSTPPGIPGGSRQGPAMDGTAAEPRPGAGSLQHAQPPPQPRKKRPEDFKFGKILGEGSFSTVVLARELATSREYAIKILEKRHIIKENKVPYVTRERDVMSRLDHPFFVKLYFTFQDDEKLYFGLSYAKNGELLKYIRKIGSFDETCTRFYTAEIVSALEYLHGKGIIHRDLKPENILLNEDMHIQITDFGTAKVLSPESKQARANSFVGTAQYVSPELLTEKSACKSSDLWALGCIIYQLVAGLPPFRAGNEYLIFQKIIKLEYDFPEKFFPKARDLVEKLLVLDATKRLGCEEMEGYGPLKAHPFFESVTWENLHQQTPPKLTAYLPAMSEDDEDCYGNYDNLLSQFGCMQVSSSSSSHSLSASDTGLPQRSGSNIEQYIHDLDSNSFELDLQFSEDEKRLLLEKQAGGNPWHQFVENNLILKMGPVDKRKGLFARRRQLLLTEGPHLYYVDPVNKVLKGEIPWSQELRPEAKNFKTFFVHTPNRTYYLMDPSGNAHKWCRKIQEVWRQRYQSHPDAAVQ
Description: Additionally, enzyme kinetics analysis was performed to quantitatively analyze the effect of the compounds of the present invention on the enzymatic activity of PDK1 (3-Phosphoinositide-dependent protein kinase-1) and to confirm the inhibition pattern.
Prior to the analysis, the half-maximal inhibitory concentration (IC50) values of the compounds GO15F, GO86, and GO88 of the present invention for inhibiting PDK1 kinase activity were determined, and the results are shown in FIG. 4.

Nc1ncccc1C(=O)NCCCCCCCCCCCCF [Compound 57, 2-Amino-N-(12-fluoro-dodecyl)-nicotinamide]
β-galactosidase activity (β-gal-positive cells) [1]: number of β-gal-positive cells decreased

12-[4-(2,2-dimethylmorpholin-4-yl)]dodecyl-N-(6-aminopurine-2-yl) carboxamide [Compound 11]
Relative cell viability (%) ([2]; 1 μM): 44.06%
Relative cell viability (%) ([2]; 10 μM): 37.40%
Relative cell viability (%) ([2]; 30 μM): 36.80%
Relative cell viability (%) ([2]; 50 μM): 38.87%
Relative cell viability (%) [3]: 26.19%
Relative cell viability (%) ([4]; SU-DHL-8, 1 μM): 7.63%
Relative cell viability (%) ([4]; SU-DHL-8, 10 μM): 6.09%
Relative cell viability (%) ([4]; SU-DHL-8, 30 μM): 4.82%
Relative cell viability (%) ([4]; SU-DHL-8, 50 μM): 3.29%
IC50 (PDK1): 11.3 nM
